Test results taken from patent US8541344B2, “Compositions with cyclopropenes and metal-complexing agents” (Rohm and Haas Company, priority 2004, dated 2013).
Counter-ions that a name gives are not always drawn.

How the values were obtained:
[1] = Cyclopropene release measurement (headspace gas chromatography); type: physicochemical; conditions: for effect on % release of 1-MCP (in words): compared to the 13% with no agent
Method: Cyclopropene Headspace Measurement Method:
A composition containing water and cyclopropene was sealed in a bottle equipped with a septum in a manner that leaves a portion of the volume of the bottle filled with gas; a portion of the headspace was analyzed for cyclopropene at 1 hour after injection. The analysis method was gas chromatography using the following parameters:
Cyclopropene Release Measurement
The release of cyclopropene from a mixture of water and cyclopropene was measured as follows.
From the measure concentration of cyclopropene in the headspace and the amount of cyclopropene added to the bottle, the fraction of the total amount of cyclopropene in the bottle that resides in the headspace can be calculated and reported as a percentage based on the amount of cyclopropene added to the bottle.

[2] = tested on: Tomatoes (Rutgers 39 Variety); experiment: Tomato epinasty test; type: in vivo; conditions: for % Control of Epinasty: foliar spray, 1-MCP 140 ppb, ethylene 14 ppm 12-14 hours
Method: Tomato epinasty tests were performed as follows:
Tomatoes (Rutgers 39 Variety Harris Seeds No 885 Lot 37729-A3) were grown in 2½″ square pots filled with a commercial potting mix. Two seeds were place in each pot. Plants that had expanded first true leaves and were between 3 and 5 inches high were used for the tomato epinasty test.
To conduct the assay, the plants were sprayed to run off with the test 1-MCP foliar spray and allowed to dry for 4 hours in sunlight These operations were performed in a ventilated area away from the plants growing in the greenhouse so there would not be any unintended treatment to growing plants destined for later experiments.
The 1-MCP treated plants and both treated and untreated controls were placed into an SLX controlled-atmosphere shipping box and sealed. To the box, ethylene was injected through a septum, which gave a concentration of 14 ppm. The plants were held sealed for 12-14 hours in the dark with ethylene in the atmosphere. At the end of ethylene treatment, the box was opened and scored for epinasty. Scoring for epinasty was accomplished by using the following scoring system for each pot. • 1. 0% no epinasty (100% control) • 2. 20% A couple leaves show some drooping (80% control) • 3. 50% Plants show 50% of full response. Not all leaves need to show effect. (50% control) • 4. 80% Almost all leaves drooping and some show underside of leaf exposed on top. (20% control) • 5. 100% Leaves completely drooping and the underside of the leaf exposed from above. (0% control)
The score of each pot is recorded. The average of 6 or 8 pots is averaged to get a score. The percentage improvement is calculated by interpolating the percentage improvement from the control water (i.e., no additives) 1-MCP treatment.
Tomato epinasty tests were conducted using a formulation that included water; a 1-MCP α-CD complex that contained 0.14% 1-MCP by weight, based on the weight of the 1-MCP α-CD complex; and sodium salt of EDTA. The amount of 1-MCP α-CD complex was chosen so that the formulation had 140 ppb of 1-MCP. Also included in the formulation were an anionic surfactant (0.1% by weight based on the weight of the formulation), isopropanol (1% by weight based on the weight of the formulation), and a spray oil (1% by weight based on the weight of the formulation).

[3] = deionized water #1, 5 ppm copper ion, metal-complexing agent 1 mM
[4] = deionized water #1, 5 ppm copper ion, metal-complexing agent 5 mM
[5] = deionized water #1, 5 ppm copper ion, metal-complexing agent 10 mM

With `CC1=CC1` [1-MCP, 1-methylcyclopropene, reference compound] the “% Release of 1-MCP” value ([1]; 1-MCP α-CD complex in deionized #1 water, no metal-complexing agent) was 100%, the “% Release of 1-MCP” value ([1]; 1-MCP α-CD complex in deionized #2 water, no metal-complexing agent) was 60% and the “% Release of 1-MCP” value ([1]; 1-MCP α-CD complex in filtered (MilliQ) water, no metal-complexing agent) was 100%. For the same molecule, the “% Release of 1-MCP” value ([1]; 1-MCP α-CD complex in tap #1 water, no metal-complexing agent, headspace at 1 hour) was 60%, the “% Release of 1-MCP” value ([1]; 1-MCP α-CD complex in tap #2 water, no metal-complexing agent, headspace at 1 hour) was 13% and the “activity of 1-MCP (in words)” value ([1]; copper ions without sodium salt of EDTA) was “reduction in activity”. For the same molecule, the “activity of 1-MCP (in words)” value ([1]; copper ions, sodium salt of EDTA added 2 hours after the 1-MCP α-CD complex) was “fails to maintain the activity”, the “activity of 1-MCP (in words)” value ([1]; copper ions, sodium salt of EDTA added to the water before the 1-MCP α-CD complex) was “maintains the full activity” and the “% Release of 1-MCP” value ([1]; deionized water #1, copper ions 0 ppm, sodium salt of EDTA 0 mM) was 100%. The “% Release of 1-MCP” value ([1]; deionized water #1, copper ions 1 ppm, sodium salt of EDTA 0 mM) was 54%, the “% Release of 1-MCP” value ([1]; deionized water #1, copper ions 5 ppm, sodium salt of EDTA 0 mM) was 36% and the “% Release of 1-MCP” value ([1]; deionized water #1, copper ions 5 ppm, sodium salt of EDTA 11 mM added 2 hours after 1-MCP α-CD complex, headspace 1 hour later) was 37%. For the same molecule, the “% Release of 1-MCP” value ([1]; deionized water #1, copper ions 5 ppm, sodium salt of EDTA 11 mM added before the 1-MCP α-CD complex) was 100%, the “% Release of 1-MCP” value ([1]; deionized water #1, copper ions 10 ppm (cupric sulfate), sodium salt of EDTA 0 mM) was 10% and the “control of epinasty (in words)” value ([2]; deionized water with 1-MCP) was “does control epinasty”. The “% Control of Epinasty” value ([2]; de-ionized water, EDTA 0 mM) was 100%, the “% Control of Epinasty” value ([2]; well water, EDTA 0 mM) was 0% and the “% Control of Epinasty” value ([2]; well water, EDTA 0.003 mM) was 80%. For the same molecule, the “control of epinasty (in words)” value ([2]; well water with 1-MCP) was “does not control epinasty” and the “control of epinasty (in words)” value ([2]; well water with 1-MCP and sodium salt of EDTA) was “does control epinasty”.
In the case of `O=C(O)CC(O)(CC(=O)O)C(=O)O` [Citric Acid, citric acid], the “% Release of 1-MCP” value ([1]; tap #2 water, citric acid 1 milliMolar added first) is reported as 63%, the “% Release of 1-MCP” value ([1]; tap #2 water, citric acid 10 milliMolar added first) is reported as 100% and the “% Release of 1-MCP” value ([1]; tap #2 water, citric acid 100 milliMolar added first) is reported as 92%. For the same molecule, the “effect on % release of 1-MCP (in words)” value ([1]; tap #2 water) was “improves the % release dramatically”.
In the case of `O=C(O)CN(CCN(CC(=O)O)CC(=O)O)CC(=O)O` [Sodium Salt of EDTA, ethylenediaminetetraacetic acid], the “effect on % release of 1-MCP (in words)” value ([1]; tap #2 water) is reported as “improves the % release dramatically”, the “% Release of 1-MCP” value ([1]; tap #2 water, sodium salt of EDTA 0.00001 milliMolar) is reported as 87% and the “% Release of 1-MCP” value ([1]; tap #2 water, sodium salt of EDTA 0.0001 milliMolar) is reported as 100%. The “% Release of 1-MCP” value ([1]; tap #2 water, sodium salt of EDTA 0.001 milliMolar) was 100%, the “% Release of 1-MCP” value ([1]; tap #2 water, sodium salt of EDTA 0.01 milliMolar) was 100% and the “% Release of 1-MCP” value ([1]; tap #2 water, sodium salt of EDTA 0.1 milliMolar) was 100%. For the same molecule, the “% Release of 1-MCP” value ([1]; tap #2 water, sodium salt of EDTA 1 milliMolar) was 100% and the “% Release of 1-MCP” value ([1]; tap #2 water, sodium salt of EDTA 10 milliMolar) was 100%.
With `O=C(O)C(O)C(O)C(=O)O` (centres unmarked) [Tartaric acid, tartaric acid] the “% Release of 1-MCP” value [1, 3] was 99%, the “% Release of 1-MCP” value [1, 4] was 85% and the “% Release of 1-MCP” value [1, 5] was 92%.
With `O=C(O)CN(CC(=O)O)CC(=O)O` [nitrilotriacetic acid] the “% Release of 1-MCP” value [1, 3] was 97%, the “% Release of 1-MCP” value [1, 4] was 100% and the “% Release of 1-MCP” value [1, 5] was 95%.
For `O=C([O-])[O-].[Na+].[Na+]` [sodium carbonate], the “% Release of 1-MCP” value [1, 3] was 61%, the “% Release of 1-MCP” value [1, 4] was 68% and the “% Release of 1-MCP” value [1, 5] was 71%.
In the case of `O=P([O-])([O-])OP(=O)([O-])[O-].[Na+].[Na+].[Na+].[Na+]` [tetrasodium pyrophosphate], the “% Release of 1-MCP” value [1, 3] is reported as 42%, the “% Release of 1-MCP” value [1, 4] is reported as 39% and the “% Release of 1-MCP” value [1, 5] is reported as 54%.
